Measurements: patent US20250268877A1 (BIOGEN MA INC., priority 2020, published 2025)
Converted amounts (≈) assume the structure as drawn. Like-named read-outs stand apart in the source and are kept apart here.

Tests used:
IRAK4 = IRAK4 (Homo sapiens (Human), UniProt Q9NWZ3); test: IRAK4 2-hour 1 mM ATP Biochemical Assay (MesoScale Detection format)
Procedure: The 2-hour 1 mM ATP Biochemical Assay employed a MesoScale Detection (MSD) format.
The activity was quenched with 11 μl of 70 mM EDTA, pH 8.
To detect the phosphorylated biotinylated peptide substrate, 30 μl of the quenched reaction mixture was added to equivalent wells of a 384 well streptavidin coated MesoScale plate (Meso Scale Discovery #L21SA-1). After a 1 hour incubation of the plate for 1 hour at room temperature with gentle mixing, the plate wells were washed 3 times with 50 mM Tris, pH 7.5, 150 mM NaCl, 0.02% Tween-20.
A 25 μl volume of 1:500 anti-P-Threonine Rabbit polyclonal Antibody plus 1:500 Goat-anti-Rabbit Sulfo Tag Antibody (Meso Scale Discovery R^32AB-1) in 50 mM Tris, pH 7.5, 150 mM NaCl, 0.02% Tween-20 plus 2% BSA was then added to each well. After a 1-hour incubation of the plate for 1 hour at room temperature with gentle mixing, the plate wells were washed, 3 times with 50 mM Tris, pH 7.5, 150 mM NaCl, 0.02% Tween-20.

MDR1 = MDR1 (Homo sapiens (Human), UniProt P08183); test: MDR1-MDCK assay (apparent permeability, efflux ratio); format: in vitro ADME; details: human, MDCK-MDR1, 1 μM
MDR1, sequence (P08183 whole entry): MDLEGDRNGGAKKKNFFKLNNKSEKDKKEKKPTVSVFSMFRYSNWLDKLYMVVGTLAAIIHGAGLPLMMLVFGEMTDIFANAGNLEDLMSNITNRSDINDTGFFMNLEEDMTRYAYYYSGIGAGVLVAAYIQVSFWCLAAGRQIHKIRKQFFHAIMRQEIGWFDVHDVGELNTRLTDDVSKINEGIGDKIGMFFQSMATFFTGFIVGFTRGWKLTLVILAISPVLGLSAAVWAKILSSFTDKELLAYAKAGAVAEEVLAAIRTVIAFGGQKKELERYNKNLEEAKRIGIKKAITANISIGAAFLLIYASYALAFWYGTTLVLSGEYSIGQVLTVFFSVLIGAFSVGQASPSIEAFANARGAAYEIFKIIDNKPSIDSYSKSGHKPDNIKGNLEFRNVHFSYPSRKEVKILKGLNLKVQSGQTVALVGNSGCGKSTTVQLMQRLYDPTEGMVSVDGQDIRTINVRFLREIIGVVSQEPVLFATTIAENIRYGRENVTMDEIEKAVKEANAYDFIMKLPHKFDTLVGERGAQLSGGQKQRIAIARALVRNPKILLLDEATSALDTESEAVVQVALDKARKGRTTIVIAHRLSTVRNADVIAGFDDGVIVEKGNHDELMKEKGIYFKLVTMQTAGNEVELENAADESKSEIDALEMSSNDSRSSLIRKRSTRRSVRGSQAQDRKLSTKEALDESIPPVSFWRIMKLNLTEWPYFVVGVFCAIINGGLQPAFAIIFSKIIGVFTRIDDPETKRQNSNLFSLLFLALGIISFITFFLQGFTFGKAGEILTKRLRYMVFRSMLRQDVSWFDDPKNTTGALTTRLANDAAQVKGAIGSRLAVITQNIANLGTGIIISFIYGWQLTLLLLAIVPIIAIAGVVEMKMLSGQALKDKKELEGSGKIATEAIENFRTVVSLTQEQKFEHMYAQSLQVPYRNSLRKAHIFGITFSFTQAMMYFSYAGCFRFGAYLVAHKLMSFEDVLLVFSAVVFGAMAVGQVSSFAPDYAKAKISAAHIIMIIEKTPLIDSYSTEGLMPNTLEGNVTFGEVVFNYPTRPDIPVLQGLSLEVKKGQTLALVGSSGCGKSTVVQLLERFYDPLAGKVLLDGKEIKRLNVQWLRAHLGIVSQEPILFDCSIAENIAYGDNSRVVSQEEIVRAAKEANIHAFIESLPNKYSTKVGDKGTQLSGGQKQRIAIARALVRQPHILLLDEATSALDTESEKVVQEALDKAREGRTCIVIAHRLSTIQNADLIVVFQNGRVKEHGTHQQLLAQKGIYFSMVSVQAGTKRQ

[1] = Kinetic solubility assay (CLND), potassium phosphate buffer pH 6.8; format: physicochemical; details: pH 6.8, 2% DMSO, 24 hours at ambient temperature; for solubility at 24 h / solubility kinetic at 24 h: potassium phosphate buffer, kinetic from dmso stock; for solubility at 24 h: pH 6.8, aqueous buffer; for solubility kinetic at 24 h: aqueous buffer, comparator table
Source text: • Inject filtrates into the nitrogen detector for quantification on Analiza's Automated Discovery Workstation (ADW). • Solubility results generated in μg/mL

[2] = Kpuu assay (in vivo brain-to-plasma partition, unbound); details: intravenous infusion 4 to 24 h, unbound drug partition coefficient; for Kp: brain (unbound) versus plasma (unbound), read-out: Brain Kpu,u
Procedure: For the brain-to-plasma partition coefficient (Kp) evaluation, a dosing solution was intravenously infused into animals at a constant flow rate for 4 to 24 h. Blood samples were serially collected during infusion, and CSF and brain samples were harvested at the end of infusion.
Tissue samples were typically homogenized in phosphate buffer saline (PBS) using a bead ruptor.
CSF samples were typically diluted with 8% BSA in PBS to prevent from non-specific binding. Artificial CSF (aCSF) is used as the surrogate matrix.
Calibration curves were prepared by spiking the analyte(s) into blank matrices, which were processed together with plasma, tissue homogenate and/or CSF samples by protein precipitation using a proper organic solvent (e.g. acetonitrile and methanol) containing generic analogue internal standards (e.g. verapamil, chrysin and glyburide). Matrix matching was used when analyzing multiple matrices in the same run. Samples above the upper limit of quantitation (ULOQ) needed to be diluted into the calibration range using either a pre-extraction or post-extraction dilution approach.
Processed samples were analyzed by LC-MS/MS using a proper method performing within the acceptable sensitivity, selectivity, precision and accuracy. For an analytical run to be accepted, over 75% of the calibration standards in the dual calibration curves needed to be within 20% of the nominal concentrations.
Brain concentrations were compared against plasma concentrations at the corresponding timepoint for the calculation of partition coefficient (Kp).
Unbound drug partition coefficient (Kpuu), defined as the ratio of unbound drug partition across the blood-brain barrier, was calculated using the equation below:
[formula] • Cb: measured total drug concentration in brain • Fub: unbound drug fraction in brain • Cp: measured total drug concentration in plasma • Fup: unbound drug fraction in plasma Compound- or study-specific PK analysis that deviates from the typical procedure might be used when necessary, which will be documented in a study specific protocol included in the data upload.
Mix thoroughly. • This spiked plasma solution is shown in FIG. 1. • 3) Prepare a chilled ‘crash’ solution of internal standard in a solvent solution. • Pipette 200 μL of 25 ng/mL solution of internal standard, CPDPX (8-Cyclopentyl-1,3-dipropylxanthine, Sigma-Aldrich, C101) in 1:1 acetonitrile/methanol solvent solution into a 1 mL 96-well plate. • Chill on ice or refrigerate at 4° C. • This solution becomes the ‘Crash’ plate in FIG. 1. • 4) From remaining spiked plasma, remove 50 μL (T=0 h) of each plasma sample and place into a crash plate which contains 200 μL. To matrix match, add 50 μL of blank buffer to the crashed sample (similar to PPB samples). […] Mix crash plate thoroughly. • From remaining spiked plasma, remove 50 μL (T=4 h) of each plasma sample and place into a crash plate. To matrix match, add 50 μL of blank buffer to the crashed sample (similar to the protein binding samples). • Centrifuge crash plate at 3900 rpm for 10 minutes at 4° C.
% Free=(PAR of buffer side/PAR of plasma side)*100 • PAR—Peak area ratio (PAR)
Fu=% Free/100 • Fu=fraction unbound

[3] = target: catalytical domain of human IRAK4 (a.a. 163-460) (Homo sapiens (Human), UniProt Q9NWZ3); test: IRAK4 SPR binding assay; details: single-cycle, 1:1 interaction model
catalytical domain of human IRAK4 (a.a. 163-460), sequence (Q9NWZ3 163-460): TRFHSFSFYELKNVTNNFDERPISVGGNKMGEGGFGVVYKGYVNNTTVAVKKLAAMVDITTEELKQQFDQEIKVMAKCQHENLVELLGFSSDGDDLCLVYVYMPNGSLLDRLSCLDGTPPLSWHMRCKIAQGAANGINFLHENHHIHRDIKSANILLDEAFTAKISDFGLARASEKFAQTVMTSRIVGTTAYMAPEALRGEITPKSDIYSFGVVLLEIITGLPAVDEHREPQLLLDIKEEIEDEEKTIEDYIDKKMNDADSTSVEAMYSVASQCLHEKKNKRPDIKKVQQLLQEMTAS
Procedure: IRAK4 SPR. IRAK4 SPR was set up on Biacore T200 or S200 by using Biotin CAPture kit (Cytiva). In brief, purified IRAK4 in capture buffer (25 mM Hepes, 150 mM NaCl, 1 mM TCEP, pH7.4) was captured onto a CAP sensor surface via the interaction of biotin to streptavidin Typical capture level is between 1,000 RU to 2,000 RU, Compound binding kinetics to IRAK4 was examined with running buffer (25 mM Hepes, 150 mM NaCl, 1 mM TCEP, 2% DMSO, pH7.4). Serially diluted compounds were injected at 50 μl/min in single-cycle for 60-s association of each injection followed by 360-s dissociation at the end. The data was fitted to global 1:1 interaction model.

[4] = target: Human MDR1 transfected MDCK cells (Homo sapiens (Human), UniProt P08183); test: MDR1-MDCK assay (apparent permeability, efflux ratio); format: in vitro ADME; details: 1 μM, 120 minutes
Human MDR1 transfected MDCK cells, sequence (P08183 whole entry): as the sequence (P08183 whole entry) above

[5] = 100 pM IRAK4, read-out: IRAK4 IC50
[6] = read-out: MDR1-MDCK_Efflux Ratio
[7] = comparator table, read-out: MDR1-MDCK Efflux Ratio

IRAK4, sequence (Q9NWZ3 whole entry): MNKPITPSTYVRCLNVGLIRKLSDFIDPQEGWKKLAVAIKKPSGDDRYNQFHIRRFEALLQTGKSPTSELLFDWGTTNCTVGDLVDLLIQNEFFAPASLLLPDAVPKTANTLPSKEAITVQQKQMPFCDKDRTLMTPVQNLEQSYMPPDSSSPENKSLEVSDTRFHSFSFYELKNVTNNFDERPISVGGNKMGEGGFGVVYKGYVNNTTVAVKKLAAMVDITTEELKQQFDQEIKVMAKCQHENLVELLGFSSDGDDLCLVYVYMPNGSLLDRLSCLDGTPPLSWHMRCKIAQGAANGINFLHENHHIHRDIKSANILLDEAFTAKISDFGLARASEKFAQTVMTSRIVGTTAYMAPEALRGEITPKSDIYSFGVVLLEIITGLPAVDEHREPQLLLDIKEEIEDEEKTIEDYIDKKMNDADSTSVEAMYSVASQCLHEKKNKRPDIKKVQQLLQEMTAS

| SMILES | IC50 (IRAK4; [5]) | efflux ratio at 120 min, 1 μM (MDR1; [6]) | solubility at 24 h [1] | Kp [2] | IRAK4 SPR binding Half Life [3] | further results |
| --- | --- | --- | --- | --- | --- | --- |
| CC(C)Oc1cc2nn([C@@]34CC[C@@](C)(C3)OC4)cc2cc1C(=O)Nc1cccn([C@H]2C[C@H]2F)c1=O [Example 50, N-(1-((1S,2R)-2-fluorocyclopropyl)-2-oxo-1,2-dihydropyridin-3-yl)-6-isopropoxy-2-((1S,4S)-1-methyl-2-oxabicyclo[2.2.1]heptan-4-yl)-2H-indazole-5-carboxamide] | 0.1 nM | 2.75 | 40.5 µg/mL (≈ 84.3 µM) | 0.4 | 138 min | – |
| CC(C)Oc1cc2nn(C34COC(CF)(C3)C4)cc2cc1C(=O)Nc1cccn([C@H]2C[C@H]2F)c1=O [Example 52, N-(1-((1S,2R)-2-fluorocyclopropyl)-2-oxo-1,2-dihydropyridin-3-yl)-2-(1-(fluoromethyl)-2-oxabicyclo[2.1.1]hexan-4-yl)-6-isopropoxy-2H-indazole-5-carboxamide] | 0.2 nM | 5.16 | 38.4 µg/mL (≈ 79.3 µM) | 0.3 | 70.7 min | – |
| COCC12CC(n3cc4cc(C(=O)Nc5cccn([C@H]6C[C@@H]6F)c5=O)c(OC(C)C)nc4n3)(CO1)C2 (single isomer, unassigned) [Example 64] | 0.4 nM | 4.35 | 58.9 µg/mL (≈ 118 µM) | – | 47.2 min | – |
| C[C@]12CC[C@](n3cc4cc(C(=O)Nc5cccn(C6CC6)c5=O)c(OC5CCC5)cc4n3)(CO1)C2 (single isomer, unassigned) [Example 41] | 0.2 nM | 1.71 | 19.7 µg/mL (≈ 41.5 µM) | – | 31.6 min | Brain Kpu,u [2]: 0.9 |
| C[C@@H]1C[C@@H]1n1cccc(NC(=O)c2cc3cn([C@@]45CC[C@@H](C4)OC5)nc3nc2OC2CC2)c1=O (single isomer, unassigned) [Example 94] | 0.6 nM | – | – | – | – | MDR1-MDCK_Efflux Ratio [4]: 2.73; Solubility pH 6.8 [1]: 14.7 ug/mL |
| CC(C)Oc1cc2nn([C@@]34CC[C@@](C)(C3)OC4)cc2cc1C(=O)Nc1cccn(C2CC2)c1=O [Example 2, N-(1-cyclopropyl-2-oxo-1,2-dihydropyridin-3-yl)-6-isopropoxy-2-((1S,4S)-1-methyl-2-oxabicyclo[2.2.1]heptan-4-yl)-2H-indazole-5-carboxamide] | 0.4 nM | 1.58 | 51.7 µg/mL (≈ 112 µM) | 0.9 | 52.85 min | – |
| CC(C)Oc1nc2nn(C34COC(CF)(C3)C4)cc2cc1C(=O)Nc1cccn(C2CC2)c1=O [Example 10, N-(1-cyclopropyl-2-oxo-1,2-dihydropyridin-3-yl)-2-(1-(fluoromethyl)-2-oxabicyclo[2.1.1]hexan-4-yl)-6-isopropoxy-2H-pyrazolo[3,4-b]pyridine-5-carboxamide] | 0.2 nM | 3.4 | 22.7 µg/mL (≈ 48.5 µM) | 0.6 | 73.4 min | – |
| CC(C)Oc1nc2nn([C@@]34CC[C@@](C)(C3)OC4)cc2cc1C(=O)Nc1cccn(C2CC2)c1=O (single isomer, unassigned) [Example 47] | 0.2 nM | 2.04 | 1.09 µg/mL (≈ 2.35 µM) | 1.6 | 54 min | – |
| CC(C)Oc1cc2nn(C34COC(C)(C3)C4)cc2cc1C(=O)Nc1cccn(C)c1=O [Comparator 1A, 6-isopropoxy-N-(1-methyl-2-oxo-1,2-dihydropyridin-3-yl)-2-(1-methyl-2-oxabicyclo[2.1.1]hexan-4-yl)-2H-indazole-5-carboxamide, reference compound] | – | – | – | – | – | efflux ratio at 120 min, 1 μM (MDR1; [7]): 1.2; solubility kinetic at 24 h [1]: 60 µg/mL (≈ 142 µM); Kp ([2]; comparator table): 1; IRAK4 SPR binding Half Life ([3]; comparator table): 9.0 min |
| COCC12CC(n3cc4cc(C(=O)Nc5cccn([C@H]6C[C@H]6F)c5=O)c(OC5CC5)nc4n3)(CO1)C2 (single isomer, unassigned) [Example 86] | 0.2 nM | 18.7 | 13.9 µg/mL (≈ 28.1 µM) | – | 74 min | – |
| CC(C)Oc1nc2nn([C@]34CC[C@](C)(C3)OC4)cc2cc1C(=O)Nc1cccn(C)c1=O (single isomer, unassigned) [Comparator 1C, reference compound] | – | – | – | – | – | IC50 (IRAK4; 100 pM IRAK4, comparator table, read-out: IRAK4 Biochemical IC50): 0.4 nM; efflux ratio at 120 min, 1 μM (MDR1; [7]): 1.2; solubility kinetic at 24 h [1]: 44.3 µg/mL (≈ 101 µM); Kp ([2]; comparator table): 1.3; IRAK4 SPR binding Half Life ([3]; comparator table): 27.1 min |
| CC12CC(n3cc4cc(C(=O)Nc5cccn([C@H]6C[C@H]6F)c5=O)c(OC5CC5)nc4n3)(CO1)C2 [Example 85, 6-cyclopropoxy-N-(1-((1S,2R)-2-fluorocyclopropyl)-2-oxo-1,2-dihydropyridin-3-yl)-2-(1-methyl-2-oxabicyclo[2.1.1]hexan-4-yl)-2H-pyrazolo[3,4-b]pyridine-5-carboxamide] | 0.2 nM | 7.21 | 20.1 µg/mL (≈ 43.2 µM) | 0.3 | 48 min | – |
| COCC12CC(n3cc4cc(C(=O)Nc5cccn([C@H]6C[C@H]6F)c5=O)c(OC(C)C)nc4n3)(CO1)C2 [Example 49, N-(1-((1S,2R)-2-fluorocyclopropyl)-2-oxo-1,2-dihydropyridin-3-yl)-6-isopropoxy-2-(1-(methoxymethyl)-2-oxabicyclo[2.1.1]hexan-4-yl)-2H-pyrazolo[3,4-b]pyridine-5-carboxamide] | 0.1 nM | 9.67 | 62.3 µg/mL (≈ 125 µM) | 0.4 | – | – |
| C[C@@H]1C[C@@H]1n1cccc(NC(=O)c2cc3cn(C45COC(CF)(C4)C5)nc3nc2OC2CC2)c1=O [Example 92] | 1.7 nM | – | – | – | – | MDR1-MDCK_Efflux Ratio [4]: 5.77; Solubility pH 6.8 [1]: 12.8 ug/mL |
| CC(C)Oc1nc2nn(C[C@H]3CCOC3)cc2cc1C(=O)Nc1cccn(C2CC2)c1=O [Example 5, (R)—N-(1-cyclopropyl-2-oxo-1,2-dihydropyridin-3-yl)-6-isopropoxy-2-((tetrahydrofuran-3-yl)methyl)-2H-pyrazolo[3,4-b]pyridine-5-carboxamide] | 0.2 nM | 4.88 | 45.6 µg/mL (≈ 104 µM) | 0.8 | – | – |
| CC12CC(n3cc4cc(C(=O)Nc5cccn([C@H]6C[C@H]6F)c5=O)c(OC5CCC5)nc4n3)(CO1)C2 [Example 27, 6-cyclobutoxy-N-(1-((1S,2R)-2-fluorocyclopropyl)-2-oxo-1,2-dihydropyridin-3-yl)-2-(1-methyl-2-oxabicyclo[2.1.1]hexan-4-yl)-2H-pyrazolo[3,4-b]pyridine-5-carboxamide] | 0.1 nM | 5.38 | 1.2 µg/mL (≈ 2.5 µM) | 0.7 | – | – |
| CC(C)Oc1cc2nn(C34COC(CF)(C3)C4)cc2cc1C(=O)Nc1cccn([C@@H]2C[C@@H]2C)c1=O [Example 81, 2-(1-(fluoromethyl)-2-oxabicyclo[2.1.1]hexan-4-yl)-6-isopropoxy-N-(1-((1R,2S)-2-methylcyclopropyl)-2-oxo-1,2-dihydropyridin-3-yl)-2H-indazole-5-carboxamide] | 37 nM | – | – | – | – | MDR1-MDCK_Efflux Ratio [4]: 1.95 |
| CC(C)Oc1cc2nn([C@@]34CC[C@@](C)(C3)OC4)cc2cc1C(=O)Nc1cccn([C@@H]2C[C@H]2F)c1=O (single isomer, unassigned) [Example 59] | 0.5 nM | 1.59 | 55.4 µg/mL (≈ 115 µM) | 1.3 | – | – |
| O=C(Nc1cccn([C@H]2C[C@H]2F)c1=O)c1cc2cn([C@]34CC[C@H](C3)OC4)nc2nc1OC1CC1 (single isomer, unassigned) [Example 88] | 0.2 nM | 9.11 | 59.3 µg/mL (≈ 127 µM) | 0.2 | – | – |
| CC(C)Oc1cc2nn([C@]34CC[C@](C)(C3)OC4)cc2cc1C(=O)Nc1cccn([C@H]2C[C@H]2F)c1=O (single isomer, unassigned) [Example 51] | 0.1 nM | 3.47 | 42.3 µg/mL (≈ 88 µM) | 0.4 | 139 min | – |
| CC(C)Oc1nc2nn([C@]34CC[C@](C)(C3)OC4)cc2cc1C(=O)Nc1cccn(C2CC2)c1=O (single isomer, unassigned) [Example 48] | 0.2 nM | 1.73 | 1.48 µg/mL (≈ 3.19 µM) | – | 58 min | – |
| CC(C)Oc1nc2nn(C34COC(C)(C3)C4)cc2cc1C(=O)Nc1cccn(C2CC2)c1=O [Example 9, N-(1-cyclopropyl-2-oxo-1,2-dihydropyridin-3-yl)-6-isopropoxy-2-(1-methyl-2-oxabicyclo[2.1.1]hexan-4-yl)-2H-pyrazolo[3,4-b]pyridine-5-carboxamide] | 0.3 nM | 3.26 | 18.7 µg/mL (≈ 41.6 µM) | 0.8 | 80.4 min | – |
